US4691014A, “Cephalosporin compounds” (Kaken Pharmaceutical Co., Ltd., priority 1984, dated 1987)
≈ marks a conversion by molar mass, not a printed value.

Experiments:
Format in all cases: cell-based
[1] = test system: Klebsiella pneumoniae KC-1; test: Minimum inhibitory concentration against Klebsiella pneumoniae KC-1; settings: KC1
Escherichia coli JC-2 = test: Minimum inhibitory concentration against Escherichia coli JC-2; settings: JC2
[2] = test system: Pseudomonus aeruginosa GN1036; test: Minimum inhibitory concentration against Pseudomonus aeruginosa GN1036; settings: Pseudomonas aeruginosa
[3] = test system: Staphylococcus aureus JC-1; test: Minimum inhibitory concentration against Staphylococcus aureus JC-1; settings: JC1
Proteus vulgaris GN-76 = test: Minimum inhibitory concentration against Proteus vulgaris GN-76; settings: GN76
[4] = test system: Pseudomonus aeruginsoa Y-1; test: Minimum inhibitory concentration against Pseudomonus aeruginsoa Y-1; settings: Pseudomonas aeruginosa, Y1

| SMILES | MIC [1] [µg/mL] | MIC (Escherichia coli JC-2) [µg/mL] | MIC [2] [µg/mL] | MIC [3] [µg/mL] | MIC (Proteus vulgaris GN-76) [µg/mL] | MIC [4] [µg/mL] |
| --- | --- | --- | --- | --- | --- | --- |
| CC(=O)Oc1cc(C(=O)O/N=C(\C(=O)N[C@@H]2C(=O)N3C(C(=O)O)=C(CSc4nnnn4C)CS[C@H]23)c2coc(N)n2)cc(OC(C)=O)c1OC(C)=O [Example 8, 7β-[2-(2-aminooxazol-4-yl)-2-Z-(3,4,5-triacetoxybenzoyloxyimino)acetamido]-3-(1-methyl-1H-tetrazol-5-yl)thiomethyl-3-cephem-4-carboxylic acid] | 0.1 (≈ 0.132 µM) | 0.1 (≈ 0.132 µM) | 0.39 (≈ 0.513 µM) | 1.56 (≈ 2.05 µM) | 0.39 (≈ 0.513 µM) | 0.1 (≈ 0.132 µM) |
| CC(=O)Oc1ccc(C(=O)O/N=C(\C(=O)N[C@@H]2C(=O)N3C(C(=O)O)=C(CSc4nnnn4CC(=O)O)CS[C@H]23)c2coc(N)n2)cc1OC(C)=O [Example 7, 7β-[2-(2-aminooxazol-4-yl)-2-Z-(3,4-diacetoxybenzoyloxyimino)acetamido]-3-(1-carboxymethyl-1H-tetrazol-5-yl)thiomethyl-3-cephem-4-carboxylic acid] | < 0.05 | 0.05 (≈ 0.0671 µM) | 0.05 (≈ 0.0671 µM) | 12.5 (≈ 16.8 µM) | 0.1 (≈ 0.134 µM) | < 0.05 |
| CC(=O)Oc1cc(C(=O)O/N=C(\C(=O)N[C@@H]2C(=O)N3C(C(=O)O)=C(CSc4nnnn4CC(=O)O)CS[C@H]23)c2coc(N)n2)cc(OC(C)=O)c1OC(C)=O [Example 10, 7β-[2-(2-aminooxazol-4-yl)-2-Z-(3,4,5-triacetoxybenzoyloxyimino)acetamido]-3-(1-carboxymethyl-1H-tetrazol-5-yl)thiomethyl-3-cephem-4-carboxylic acid] | 0.2 (≈ 0.249 µM) | 0.05 (≈ 0.0622 µM) | 0.39 (≈ 0.485 µM) | 6.25 (≈ 7.78 µM) | 0.05 (≈ 0.0622 µM) | 0.1 (≈ 0.124 µM) |
| CC(=O)Oc1ccc(C(=O)O/N=C(\C(=O)N[C@@H]2C(=O)N3C(C(=O)O)=C(CSc4nnc(C)s4)CS[C@H]23)c2coc(N)n2)cc1OC(C)=O [Example 6, 7β-[2-(2-aminooxazol-4-yl)-2-Z-(3,4-diacetoxybenzoyloxyimino)acetamido]-3-(2-methyl-1,3,4-thiadiazol-5-yl)thiomethyl-3-cephem-4-carboxylic acid] | 0.05 (≈ 0.0697 µM) | 0.2 (≈ 0.279 µM) | 0.39 (≈ 0.543 µM) | 3.12 (≈ 4.35 µM) | 0.2 (≈ 0.279 µM) | 0.1 (≈ 0.139 µM) |
| CC(=O)OCC1=C(C(=O)O)N2C(=O)[C@@H](NC(=O)/C(=N\OCC(=O)c3ccc(OC(C)=O)c(OC(C)=O)c3)c3coc(N)n3)[C@H]2SC1 [Example 1, 7β-[2-(2-aminooxazol-4-yl)-2-Z-(3,4-diacetoxybenzoylmethoxyimino)acetamido]cephalosporanic acid] | 0.2 (≈ 0.303 µM) | 0.78 (≈ 1.18 µM) | 0.78 (≈ 1.18 µM) | 3.12 (≈ 4.73 µM) | 1.56 (≈ 2.37 µM) | 0.1 (≈ 0.152 µM) |
| CCOC(=O)Oc1ccc(C(=O)O/N=C(\C(=O)N[C@@H]2C(=O)N3C(C(=O)O)=C(CSc4nnnn4C)CS[C@H]23)c2coc(N)n2)cc1OC(=O)OCC [Example 9, 7β-[2-(2-aminooxazol-4-yl)-2-Z-(3,4-diethoxycarbonyloxybenzoyloxyimino)acetamido]-3-(1-methyl-1H-tetrazol-5-yl)thiomethyl-3-cephem-4-carboxylic acid] | 0.05 (≈ 0.0656 µM) | 0.2 (≈ 0.263 µM) | 0.2 (≈ 0.263 µM) | 3.12 (≈ 4.1 µM) | 0.2 (≈ 0.263 µM) | 0.05 (≈ 0.0656 µM) |
| CO/N=C(\C(=O)N[C@@H]1C(=O)N2C(C(=O)O)=C(COC(C)=O)CS[C@H]12)c1csc(N)n1 [Cefotaxime, reference compound] | – | 0.1 (≈ 0.22 µM) | 12.5 (≈ 27.4 µM) | 6.25 (≈ 13.7 µM) | 0.05 (≈ 0.11 µM) | 12.5 (≈ 27.4 µM) |
| CC(=O)Oc1ccc(C(=O)O/N=C(\C(=O)N[C@@H]2C(=O)N3C(C(=O)O)=C(CSc4nnnn4C)CS[C@H]23)c2coc(N)n2)cc1OC(C)=O [Example 5, 7β-[2-(2-aminooxazol-4-yl)-2-Z-(3,4-diacetoxybenzoyloxyimino)acetamido]-3-(1-methyl-1H-tetrazol-5-yl)thiomethyl-3-cephem-4-carboxylic acid] | 0.2 (≈ 0.285 µM) | 0.39 (≈ 0.556 µM) | 0.39 (≈ 0.556 µM) | 1.56 (≈ 2.22 µM) | 0.39 (≈ 0.556 µM) | 0.1 (≈ 0.143 µM) |
| CC(=O)OCC1=C(C(=O)O)N2C(=O)[C@@H](NC(=O)/C(=N\OC(=O)c3ccc(OC(C)=O)c(OC(C)=O)c3)c3coc(N)n3)[C@H]2SC1 [Example 4, 7β-[2-(2-aminooxazol-4-yl)-2-Z-(3,4-diacetoxybenzoyloxyimino)acetamido]cephalosporanic acid] | 0.2 (≈ 0.31 µM) | 0.2 (≈ 0.31 µM) | 0.78 (≈ 1.21 µM) | 1.56 (≈ 2.42 µM) | 0.39 (≈ 0.604 µM) | 0.1 (≈ 0.155 µM) |
| CC(=O)Oc1ccc(C(=O)CO/N=C(\C(=O)N[C@@H]2C(=O)N3C(C(=O)O)=C(CSc4nnnn4C)CS[C@H]23)c2coc(N)n2)cc1OC(C)=O [Example 2, 7β-[2-(2-aminooxazol-4-yl)-2-Z-(3,4-diacetoxybenzoylmethoxyimino)acetamido]-3-(1-methyl-1H-tetrazol-5-yl)thiomethyl-3-cephem-4-carboxylic acid] | 0.05 (≈ 0.0699 µM) | 0.2 (≈ 0.279 µM) | 0.2 (≈ 0.279 µM) | 3.12 (≈ 4.36 µM) | 1.56 (≈ 2.18 µM) | 0.05 (≈ 0.0699 µM) |
| CC(=O)Oc1ccc(C(=O)CO/N=C(\C(=O)N[C@@H]2C(=O)N3C(C(=O)O)=C(CSc4nnnn4CC(=O)O)CS[C@H]23)c2coc(N)n2)cc1OC(C)=O [Example 3, 7β-[2-(2-aminooxazol-4-yl)-2-Z-(3,4-diacetoxybenzoylmethoxyimino)]acetamido-3-(1-carboxymethyl-1H-tetrazol-5-yl)thiomethyl-3-cephem-4-carboxylicacid] | 0.05 (≈ 0.0658 µM) | 0.2 (≈ 0.263 µM) | 0.2 (≈ 0.263 µM) | 12.5 (≈ 16.5 µM) | 1.56 (≈ 2.05 µM) | < 0.05 |
